The record followed here is PubChem BioAssay (NCI).

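Cells were grown in 96-well plates and exposed to each compound for 48 hours at five concentrations; endpoints were interpolated linearly between bracketing concentrations, or set to the highest concentration if not reached. The concentration for 50% growth inhibition is given as GI50. At the TGI there is no net growth.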

Assay in all cases: NCI-60 cell line screen, 48 h
The test system of test [1] is MOLT-4 leukemia.
In test [2] the test system is SW-620 colon.
Test [3] has as its system SF-268 CNS.
Test [4] has as its system 786-0 renal.
Test [5] concerns MDA-MB-231 breast.
Test [6] relates to A549 NSCLC.
Test [7] concerns HOP-92 NSCLC.
Test [8] has as its system UO-31 renal.
For test [9], the system named is LOX IMVI melanoma.
The test system of test [10] is SR leukemia.

As for `CN(C)CCNc1c(O)c2c(c(O)c1Cl)C(=O)C=CC2=O`, the TGI in [1] is over 100 µM; in test [2], 3.91 µM; in [3], 35.2 µM; in test [4] it was 4.27 µM; in [5] it was 2.72 µM; in test [6] it was 5.41 µM. Also, the TGI in test [7] was 4.25 µM; in [8], 4.75 µM.
As to `Cc1c2ccccc2c(/C=N/NC(=O)CSCC(=O)N/N=C/c2c3ccccc3c(C)c3ccccc23)c2ccccc12`, the TGI in test [1] was over 87.8 µM; in test [2], over 100 µM; in [3], over 75.3 µM; in test [4], over 52.8 µM; in test [9], over 100 µM; in [5], over 75 µM. For the same compound, the values for the TGI in [6], in test [7] and in test [8] were over 100 µM, 38.6 µM and over 100 µM, respectively.
`COc1ccc(/C=C2\C(=O)N(C(=O)c3ccc(NC(C)=O)cc3)N=C2C)cc1OC`: the TGI in test [1], in test [2], in test [3], in [4], in test [9] and in test [10] was over 100 µM each time. Also, the TGI in [6] and in test [8] was over 100 µM throughout.
`NC(=O)N/N=C(\Cc1cc(=O)oc2cc(O)ccc12)C(=O)Nc1ccccc1C(N)=O`: the TGI in [1], in [2], in [3], in test [4], in test [9] and in [5] was over 100 µM throughout. Besides, the TGI in test [6], in test [7] and in [8] was over 100 µM in each case.
Regarding `O=C1CC(Nc2ccccc2)c2c(Cl)sc(Cl)c21` (stereo not given), the TGI was determined as 5.18 µM in [1]; 0.784 µM in test [4]; 2.09 µM in test [9]; 3.42 µM in test [5]; 6 µM in [6]; 3.13 µM in [7]. The compound also yielded a TGI in test [8] of 2.57 µM.
Consider `CCOc1cc2c(cc1OC)c[n+](C)c1c3cc(OC)c(OC)cc3ccc21`, for which the TGI was over 100 µM in [1]; over 93.5 µM in test [2]; over 100 µM in test [3]; over 56.6 µM in test [4]; over 81.3 µM in test [9]; over 100 µM in test [10]. Moreover, the TGI is over 100 µM in [6], over 60.3 µM in [7] and over 100 µM in test [8].
As for `CCOC(=O)c1nc(SC)sc1NC(=O)c1ccc(OC)cc1`, the TGI in [1], in test [2], in test [3], in test [4], in test [9] and in test [5] was over 100 µM in each case. The TGI in [6], in test [7] and in test [8] was over 100 µM in each case.
`Cc1cc2c(cc1Cl)SSc1cc(Cl)c(C)cc1S(=O)(=O)Nc1nc(N)nn1C(O)n1nc(N)nc1NS2(=O)=O`: the TGI in [1], in test [2], in [3], in test [4], in test [9] and in test [10] was over 10 µM each time. For the same compound, the TGI in test [6], in test [7] and in test [8] was over 10 µM throughout.
For `COc1cc(/C=C2\CC3C4CC=C5C[C@@H](O)CC[C@]5(C)C4CC[C@]3(C)\C2=N\O)cc(OC)c1OC` (stereo not given in full), the TGI in [1] is over 100 µM; in test [2], over 100 µM; in [3], over 100 µM; in [4], 72.2 µM; in test [9] it was 63.2 µM; in [5], 74 µM. Besides, the TGI in test [6] was over 100 µM; in test [7] it was over 100 µM; in [8] it was 11.1 µM.
Take `O=c1[nH]nc(-c2ccc3ccccc3c2)[nH]1`: the TGI in test [1], in test [2], in [3], in test [4], in test [9] and in test [10] was over 100 µM throughout. Moreover, the TGI in [6] and in test [8] was over 100 µM throughout.
As to `CCOC(=O)Cn1nnc2ccc(Nc3nc4ccccc4nc3C(=O)OCC)cc21`, the TGI in test [1], in test [2], in [3], in [4], in [9] and in test [10] was over 100 µM throughout. The TGI in [6], in test [7] and in test [8] was over 100 µM each time.
As to `O=C1O/C(=C(\Br)c2ccc([N+](=O)[O-])cc2)c2ccccc21`, the TGI in test [1] was over 69.1 µM; in [2], over 100 µM; in test [3], over 100 µM; in [4] it was over 100 µM; in test [9] it was over 100 µM; in [10], over 71.4 µM. The TGI in test [6], in [7] and in [8] was over 100 µM each time.
On to `CC(C)C(Sc1nc(-c2ccccc2)c(-c2ccccc2)[nH]1)C(=O)N/N=C/c1ccc(Cl)cc1` (stereo not given), for which the TGI is 68.2 µM in test [2]; 57.6 µM in test [3]; 40.8 µM in [4]; 28.9 µM in [9]; over 100 µM in test [10]; 82.3 µM in test [6]. The TGI came out at 54.2 µM in [7] and 47.8 µM in test [8].
Consider `c1ccc(CCCN2C3CCC2CN(CCOC(c2ccccc2)c2ccccc2)C3)cc1`, for which the TGI in test [1] amounted to 25.3 µM; in test [2] it was 44.8 µM; in test [3], 29.2 µM; in test [4] it was 21.6 µM; in test [9] it was 24.5 µM; in test [5], 21 µM. The TGI in test [6] came to 27.2 µM; in test [7], 25.5 µM; in [8] it was 24.8 µM.
On to `CCOC(=O)c1ccc(-c2onc(C)c2Br)[nH]1`, for which the TGI in [1], in test [2], in test [3], in [4], in test [5] and in test [6] was over 100 µM in each case. Further, the figures for the TGI in test [7] and in [8] were 92 µM and over 100 µM, respectively.
With `CC1=NN(c2ccccc2)C(=O)/C1=C1\SC(c2ccccc2)(c2ccccc2)c2ccccc21`, the TGI in test [1], in test [2], in [3], in test [4], in test [9] and in test [5] was over 100 µM each time. The TGI in [6], in test [7] and in [8] was over 100 µM in each case.
Turning to `Cc1cnoc1/N=C1\C=C(Nc2oncc2C)C(=O)c2ccccc21`, the TGI in test [1], in test [2], in test [3], in test [4], in test [9] and in test [10] was over 100 µM each time. Also, the TGI in test [6], in [7] and in test [8] was over 100 µM each time.
Turning to `Cc1cccc(C)c1NC(=S)N/C=C(\C#N)C(N)=O`, the TGI in [1], in test [2], in test [3], in test [4], in test [9] and in test [5] was over 100 µM each time. Further, the TGI in [6], in test [7] and in test [8] was over 100 µM in each case.
`O=[N+]([O-])C(/C(Cl)=C(/Cl)N1CCOCC1)=C1\Nc2ccccc2O1`: the TGI in test [1], in test [2], in test [3], in test [4], in test [5] and in test [6] was over 100 µM in each case. The TGI in [8] is over 100 µM.
Regarding `COc1ccc(-c2nc(-c3nc4cc(Cl)c(Cl)cc4[nH]3)c3ccccn23)cc1`, the GI50 is over 100 µM in [1]; 8.37 µM in test [2]; 2.59 µM in test [3]; 3.6 µM in test [9]; 6.26 µM in test [10]; 1.82 µM in [7]. For the same compound, the TGI was over 100 µM in test [1]; over 100 µM in [2]; 6.83 µM in test [3]; over 100 µM in [9]; over 100 µM in [10]; 5.1 µM in [7].
`CCOC(=O)CCCN`: the TGI in test [1], in test [2], in test [3], in [4], in [9] and in test [5] was over 100 µM throughout. Moreover, the TGI in test [6], in test [7] and in test [8] was over 100 µM in each case.
With `CN(C)c1ccc(-c2c(C#N)c(-c3ccccc3)n(NS(=O)(=O)c3ccccc3)c(=O)c2C#N)cc1`, the TGI was 55.8 µM in test [1]; over 100 µM in test [2]; over 100 µM in test [3]; over 100 µM in test [4]; over 100 µM in test [9]; over 100 µM in [5]. Besides, the TGI in [6] and in test [7] was over 100 µM each time.
As to `O=c1[nH]c2c(C(F)(F)F)c(Cl)c(-c3ccccc3)nc2o1`, the TGI in test [1] is 32.5 µM; in test [2] it was over 100 µM; in test [3] it was over 100 µM; in [4], over 100 µM; in [9] it was over 100 µM; in test [5], 65.2 µM. The TGI in test [6] is over 100 µM; in [7] it was 75.7 µM; in [8] it was over 100 µM.
Regarding `COc1cc(O)c2c(=O)c3cccc(C)c3[nH]c2c1`, the TGI in [1], in test [2], in test [3], in test [4], in [9] and in test [5] was over 10 µM throughout. For the same compound, the TGI in test [6] was over 10 µM.
In the case of `CCCSc1ccc2[nH]c(N3C(=O)/C(=C/c4ccc(O)c(OC)c4)N=C3c3ccccc3)cc2c1`, the TGI in [1] was 20.8 µM; in test [2] it was over 100 µM; in test [3], over 100 µM; in [4] it was over 100 µM; in [9], over 100 µM; in test [10] it was over 100 µM. The TGI in [7] and in test [8] was over 100 µM throughout.
As for `CS(=O)(=O)N(CCC#N)c1ccc(/C=C2\N=C(c3ccccc3Cl)OC2=O)cc1`, the TGI in test [1], in [2], in test [3], in test [4], in test [9] and in test [6] was over 100 µM throughout. Moreover, the TGI in [8] was over 100 µM.
`COC(=O)C1=C(C(=O)OC)C23CC4CCC2(C(=O)C1O3)C4(C)C` (stereo not given): the TGI in [1], in test [2], in test [3], in test [4], in test [9] and in test [10] was over 100 µM each time. The TGI in [6], in [7] and in test [8] was over 100 µM in each case.
In the case of `O=NN(CC1(O)OCC(O)C(O)C1O)C(Cc1c[nH]c2ccccc12)C(=O)O` (stereo not given), the TGI in test [1], in test [2], in test [4], in test [9], in [6] and in test [7] was over 100 µM in each case.
Turning to `Cc1cc(C)c2c(-c3ccccc3)cc(=O)[nH]c2c1`, the TGI in test [1], in test [2], in [3], in test [4], in test [9] and in [5] was over 100 µM in each case. This compound also registered a TGI in test [6] of over 100 µM.
Take `CSC(=Nc1ccc([N+](=O)[O-])cc1C#N)NC(=O)c1ccccc1`: the TGI in test [1], in [2], in test [3], in test [4], in test [9] and in test [10] was over 100 µM in each case. The TGI in test [6] and in [7] was over 100 µM throughout.
Take `CN(C)CC1CCC/C(=C\c2ccc(Cl)c(Cl)c2)C1=O` (stereo not given): the TGI in [1] was 4.83 µM; in test [2], over 29.3 µM; in test [3] it was 8.88 µM; in test [4] it was 3.42 µM; in [5], 10.9 µM; in test [6], 30.4 µM. For the same compound, the TGI in test [7] amounted to 13.4 µM; in test [8], 5.99 µM.
